Here are results for 60 compounds from patent publication US8685974B2 (Bayer CropScience AG, priority 2009, dated 2014).

The data set can be described thus: physchem. The conditions noted are these: pH 2.7.

Compound `CCn1cc(I)c(-c2cc(Cl)cs2)n1` [3-(4-Chloro-2-thienyl)-1-ethyl-4-iodo-1H-pyrazole] yielded a log p of 4.02. For the compound `CCCn1nccc1-c1cccs1` [1-Propyl-5-(2-thienyl)-1H-pyrazole], the log p was 2.64. Then `CCn1nccc1-c1cc(C)cs1` [1-Ethyl-5-(4-methyl-2-thienyl)-1H-pyrazole], with 2.68; and `CCCn1ccc(-c2cc(C)cs2)n1` [3-(4-Methyl-2-thienyl)-1-propyl-1H-pyrazole], with 3.07. Take `CSc1nccc(CC(=O)c2ccc(Cl)s2)n1` [1-(5-Chloro-2-thienyl)-2-[2-(methylsulfanyl)pyrimidin-4-yl]ethanone]: the log p worked out at 2.98. Then `CN(C)C=C(C(=O)c1ccc(Cl)s1)c1ccnc(Cl)c1` [1-(5-chloro-2-thienyl)-3-(dimethylamino)-2-(2-chloropyridin-4-yl)prop-2-en-1-one], with 2.58; and `CCn1ncc(I)c1-c1cc(Cl)cs1` [5-(4-Chloro-2-thienyl)-1-ethyl-4-iodo-1H-pyrazole], with 3.76; and `CCCc1cc(-c2sccc2C)n(C)n1` [1-Methyl-5-(3-methyl-2-thienyl)-3-propyl-1H-pyrazole], with 3.34. Then `CC(C)n1nc(C2CC2)c(-c2ccncc2)c1-c1ccc(Cl)s1` [4-[3-Cyclopropyl-1-isopropyl-5-(5-chloro-2-thienyl)-1H-pyrazol-4-yl]pyridine], with 2.44; and `Ic1c[nH]nc1-c1cccs1` [4-Iodo-3-(2-thienyl)-1H-pyrazole], with 2.1. Next, `Brc1cc(-c2cc[nH]n2)sc1Br` [3-(4,5-Dibromo-2-thienyl)-1H-pyrazole]: 2.74; `CC(C)n1ncc(-c2ccncc2)c1-c1ccc(Cl)s1` [4-[1-Isopropyl-5-(5-chloro-2-thienyl)-1H-pyrazol-4-yl]pyridine]: 1.7. In turn, `CC(C)n1cc(-c2ccnc(NCc3ccccc3)n2)c(-c2ccc(Cl)s2)n1` [N-Benzyl-4-[3-(5-chloro-2-thienyl)-1-isopropyl-1H-pyrazol-4-yl]pyrimidin-2-amine] showed a log p of 3.81. Regarding `Cc1csc(-c2ccnn2C)c1` [1-Methyl-5-(4-methyl-2-thienyl)-1H-pyrazole], the log p was determined as 2.26.

As for `O=C(Cc1ccnc(Cl)n1)c1ccc(Cl)s1` [2-(2-Chloropyrimidin-4-yl)-1-(5-chloro-2-thienyl)ethanone], the log p amounted to 2.6. In turn, `CC(C)n1nc(-c2ccc(Cl)s2)c(-c2ccncc2)c1C1CC1` [4-[5-Cyclopropyl-1-isopropyl-3-(5-chloro-2-thienyl)-1H-pyrazol-4-yl]pyridine] gave a log p of 2.44. Then `CCCn1nccc1-c1cc(C)cs1` [5-(4-Methyl-2-thienyl)-1-propyl-1H-pyrazole], with 3.1. Then `CC(C)n1ccc(-c2cc(Br)c(Br)s2)n1` [3-(4,5-Dibromo-2-thienyl)-1-isopropyl-1H-pyrazole], with 4.64. Next, `CCC(C)n1cc(-c2ccnc(C#CC3CC3)c2)c(-c2ccc(Cl)s2)n1` (stereo not drawn) [4-[1-sec-Butyl-3-(5-chloro-2-thienyl)-1H-pyrazol-4-yl]-2-(cyclopropylethynyl)pyridine]: 4.56; `CCCc1c(I)c(-c2cccs2)nn1C` [4-Iodo-1-methyl-5-propyl-3-(2-thienyl)-1H-pyrazole]: 3.92; `CC(=O)Nc1nccc(-c2cn(C(C)C)nc2-c2ccc(Cl)s2)n1` [N-{4-[3-(5-Chloro-2-thienyl)-1-isopropyl-1H-pyrazol-4-yl]pyrimidin-2-yl}acetamide]: 2.59. In turn, `CC(C)Cn1cc(-c2ccncc2)c(-c2ccc(C#N)s2)n1` [4-[1-Isobutyl-3-(5-cyano-2-thienyl)-1H-pyrazol-4-yl]pyridine] showed a log p of 1.74.

The compound `CC(C)n1ccc(-c2cccs2)n1` [1-Isopropyl-3-(2-thienyl)-1H-pyrazole] gave a log p of 2.66. Take `CCC(C)n1cc(-c2ccnc(C#N)c2)c(-c2ccc(Cl)s2)n1` (stereo not drawn) [2-Cyano-4-[1-sec-butyl-3-(5-chloro-2-thienyl)-1H-pyrazol-4-yl]pyridine]: the log p is 4.41. Next, `CSc1ccc(-c2c(-c3ccncc3)cnn2C(C)C)s1` [4-[1-Isopropyl-5-(5-methylsulfanyl-2-thienyl)-1H-pyrazol-4-yl]pyridine]: 1.78.

For the compound `CC(C)Cn1cc(-c2ccnc3ccccc23)c(-c2ccc(Cl)s2)n1` [4-[3-(5-chloro-2-thienyl)-1-isobutyl-1H-pyrazol-4-yl]quinoline], the log p was found to be 3.69. Next, `CCCn1ccc(-c2cccs2)n1` [1-Propyl-3-(2-thienyl)-1H-pyrazole]: 2.58; `CC(C)n1ccc(-c2cc(Br)cs2)n1` [3-(4-Bromo-2-thienyl)-1-isopropyl-1H-pyrazole]: 3.61. Next, `CCC(C)n1cc(-c2ccncc2)c(-c2ccc(F)s2)n1` (stereo not drawn) [4-[1-sec-butyl-3-(5-fluoro-2-thienyl)-1H-pyrazol-4-yl]pyridine]: 1.78.

`CCC(C)n1ncc(I)c1-c1cccs1` (stereo not drawn) [1-sec-Butyl-4-iodo-5-(2-thienyl)-1H-pyrazole] came in with a log p of 4.12. Regarding `Clc1ccc(-c2n[nH]cc2-c2ccncc2)s1` [4-[3-(5-chloro-2-thienyl)-1H-pyrazol-4-yl]pyridine], the log p was determined as 0.9. As for `CCC(C)n1ccc(-c2cccs2)n1` (stereo not drawn) [1-sec-Butyl-3-(2-thienyl)-1H-pyrazole], the log p is 3.1.

As to `CC(C)Nc1nccc(-c2c[nH]nc2-c2ccc(Cl)s2)n1` [4-[3-(5-Chloro-2-thienyl)-1H-pyrazol-4-yl]-2-(isopropylamino)pyrimidine], the log p was 1.79. Next, `CC(C)n1cc(I)c(-c2cccs2)n1` [4-Iodo-1-isopropyl-3-(2-thienyl)-1H-pyrazole]: 3.71. As to `Cc1c(Br)c(-c2ccc(Cl)s2)nn1C` [4-Bromo-3-(5-chloro-2-thienyl)-1,5-dimethyl-1H-pyrazole], the log p worked out at 3.92. In turn, `CCC(C)n1ncc(I)c1-c1cc(Cl)cs1` (stereo not drawn) [1-sec-Butyl-5-(4-chloro-2-thienyl)-4-iodo-1H-pyrazole] displayed a log p of 4.72. Take `Cc1c(Br)c(-c2ccc(Cl)s2)nn1C(C)C` [4-Bromo-3-(5-chloro-2-thienyl)-1-isopropyl-5-methyl-1H-pyrazole]: the log p was 5.35. Then `CCC(C)n1nccc1-c1cc(C)cs1` (stereo not drawn) [1-sec-Butyl-5-(4-methyl-2-thienyl)-1H-pyrazole], with 3.65; and `CCC(C)n1nccc1-c1cccs1` (stereo not drawn) [1-sec-Butyl-5-(2-thienyl)-1H-pyrazole], with 2.97. The compound `CCC(C)n1cc(-c2ccnc(Br)c2)c(-c2ccc(Cl)s2)n1` (stereo not drawn) [2-Bromo-4-[1-sec-butyl-3-(5-chloro-2-thienyl)-1H-pyrazol-4-yl]pyridine] came in with a log p of 5.03. In turn, `CCCc1c(I)c(-c2sccc2C)nn1C` [4-Iodo-1-methyl-3-(3-methyl-2-thienyl)-5-propyl-1H-pyrazole] had a log p of 4.03. `CC(=O)Nc1cc(-c2cn(CC(C)C)nc2-c2ccc(Cl)s2)cc[n+]1[O-]` [N-{4-[3-(5-chloro-2-thienyl)-1-isobutyl-1H-pyrazol-4-yl]-1-oxidopyridin-2-yl}acetamide]: the log p turned out to be 2.86. Next, `Cc1csc(-c2nn(C(C)C)cc2I)c1` [4-Iodo-1-isopropyl-3-(4-methyl-2-thienyl)-1H-pyrazole]: 4.26; `CCC(C)n1cc(-c2ccncc2)c(-c2cc(Cl)cs2)n1` (stereo not drawn) [4-[1-sec-Butyl-3-(4-chloro-2-thienyl)-1H-pyrazol-4-yl]pyridine]: 1.83; `Cc1n[nH]c(-c2ccc(Cl)s2)c1-c1ccncc1` [4-[5-(5-Chloro-2-thienyl)-3-methyl-1H-pyrazol-4-yl]pyridine]: 1.07. Compound `CC(C)Nc1nccc(CC(=O)c2ccc(Cl)s2)n1` registered a log p of 2.37.

Compound `CCn1ccc(-c2cc(Br)cs2)n1` [3-(4-Bromo-2-thienyl)-1-ethyl-1H-pyrazole] returned a log p of 3.04. `Cc1csc(-c2cc[nH]n2)c1` [3-(4-Methyl-2-thienyl)-1H-pyrazole] registered a log p of 1.72.

Compound `Cc1csc(C(=O)C=CN(C)C)c1` [3-(Dimethylamino)-1-(4-methyl-2-thienyl)prop-2-en-1-one] yielded a log p of 1.65. Next, `Cc1csc(-c2ccn(C(C)C)n2)c1` [1-Isopropyl-3-(4-methyl-2-thienyl)-1H-pyrazole]: 3.14; `Fc1ccc(-c2n[nH]cc2-c2ccncc2)s1` [4-[3-(5-Fluoro-2-thienyl)-1H-pyrazol-4-yl]pyridine]: 0.57; `Brc1csc(-c2cc[nH]n2)c1` [3-(4-Bromo-2-thienyl)-1H-pyrazole]: 1.99. Then `N#Cc1[nH]nc(-c2ccc(Cl)s2)c1-c1ccncc1` [3-(5-Chloro-2-thienyl)-4-(pyridin-4-yl)-1H-pyrazole-5-carbonitrile], with 1.53; and `CC(C)n1nccc1-c1cc(Br)c(Br)s1` [5-(4,5-Dibromo-2-thienyl)-1-isopropyl-1H-pyrazole], with 4.44; and `CCn1nccc1-c1cccs1` [1-Ethyl-5-(2-thienyl)-1H-pyrazole], with 2.18. Next, `CC(C)Nc1nccc(-c2cn(C(C)C)nc2-c2ccc(Cl)s2)n1` [N-Isopropyl-4-[3-(5-chloro-2-thienyl)-1-isopropyl-1H-pyrazol-4-yl]pyrimidin-2-amine]: 2.82; `Clc1ccc(-c2nn(C3CC3)cc2-c2ccncc2)s1` [4-[1-Cyclopropyl-3-(5-chloro-2-thienyl)-1H-pyrazol-4-yl]pyridine]: 1.62; `CC(C)Cn1cc(-c2ccnc(Cl)c2)c(-c2ccc(Cl)s2)n1` [2-Chloro-4-[1-isobutyl-3-(5-chloro-2-thienyl)-1H-pyrazol-4-yl]pyridine]: 4.85. As for `CCC(=O)Nc1cc(-c2cn(CC)nc2-c2cccs2)ccn1` [N-{4-[1-Ethyl-3-(2-thienyl)-1H-pyrazol-4-yl]pyridin-2-yl}propanamide], the log p came out at 1.65. Compound `CCC(C)n1nc(-c2ccc(Cl)s2)c(-c2ccncc2)c1F` (stereo not drawn) [4-[3-(5-Chloro-2-thienyl)-5-fluoro-1-secbutyl-1H-pyrazol-4-yl]pyridine] registered a log p of 2.61.
